Reference: patent US11292788B2, “IL-17 and IFN-gamma inhibition for the treatment of autoimmune diseases and chronic inflammation” (Immunic AG, priority 2017, dated 2022)
≈ marks a conversion by molar mass, not a printed value.

Columns and labels:
[1] = Aqueous solubility in 50 mM phosphate buffer (HPLC/DAD); type: physicochemical; details: 50 mM phosphate buffer, 23 °C, pH 7.4, aqueous buffer, kinetic from dmso stock, aqueous solubility class; read-out: aq. solub.
In short: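 Compound at 200 μM (1% DMSO final) shaken 24 h at 23° C in aqueous phosphate buffers at pH 4.0, 6.0, 7.4 and 9.0. Undissolved material removed by centrifugation (30 min, 18000 g). Supernatant concentration quantified by HPLC-UV against a 0.1–200 μg/ml standard curve in MeCN.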

[2] = Microsomal stability: incubation with human liver microsomes, residual parent compound by HPLC-MS/MS; type: in vitro ADME; details: pH 7.4; human liver microsomes, 1 μM compound, 0.5 mg/ml HLM, 37° C., up to 60 min; read-out: t1/2 hLM
In short: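 Compound at 1 μM final with 0.5 mg/ml pooled human liver microsomes and NADPH regenerating system, 0.1 M potassium phosphate pH 7.4, 0.4% DMSO, 37° C, sampled up to 60 min. Residual parent measured by HPLC-MS/MS; half-life and clearance from slope of remaining % of T0.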

INF-γ = experiment: Cytokine assay: INF-γ production by human PBMC stimulated with PHA; type: cell-based; details: Homo sapiens, PBMC, IC50 class, read-out: IFN-gamma Inhib.
In short: (§1)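 Human donor PBMC (1×10^5 cells/well) were activated with 2 μg/ml PHA and exposed to compounds for 48 h. Supernatant IL-17A, IL-17F and IFN-γ were measured by Luminex or ELISA. Screening used 10, 1, 0.1 and 0.01 μM; IC50 values came from semilogarithmic titrations.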

IL-17A = experiment: Cytokine assay: IL-17A production by human PBMC stimulated with PHA; type: cell-based; details: Homo sapiens, PBMC, IC50 class, read-out: IL-17A Inhib.
In short: as §1

IL-17F = experiment: Cytokine assay: IL-17F production by human PBMC stimulated with PHA; type: cell-based; details: Homo sapiens, PBMC, IC50 class, read-out: IL-17F Inhib.
In short: as §1

Structure (SMILES) | solubility at 24 h [1] | half-life at 1 μM [2] | IC50 (INF-γ) | IC50 (IL-17A) | IC50 (IL-17F)
COc1cccc(-c2noc(-c3cnn([C@H]4C[C@@](C)(O)C4)c3C(F)(F)F)c2COC2CC2)c1Cl [Example 130, 3-(4-(3-(2-chloro-3-methoxyphenyl)-4-(cyclopropoxymethyl)isoxazol-5-yl)-5-(trifluoromethyl)-1H-pyrazol-1-yl)-1-methylcyclobutan-1-ol] | 3 to 9.99 µM (≈ 1.49 to 4.97 µg/mL) | 0.667 to 1.67 h | < 50 nM | < 50 nM | < 50 nM
CCOC(=O)c1c(-c2cccc(OC)c2Cl)noc1-c1cnn([C@H]2C[C@@](C)(O)C2)c1C(F)(F)F [Example 131, ethyl 3-(2-chloro-3-methoxyphenyl)-5-{1-[3-hydroxy-3-methylcyclobutyl]-5-(trifluoromethyl)-1H-pyrazol-4-yl}-1,2-oxazole-4-carboxylate] | > 10 µM | > 1.67 h | < 50 nM | < 50 nM | < 50 nM
CCOC(=O)c1c(-c2cccc(OC)c2Cl)noc1-c1cnn(CCC(C)(C)O)c1C(F)(F)F [Example 132, ethyl 3-(2-chloro-3-methoxyphenyl)-5-[1-(3-hydroxy-3-methylbutyl)-5-(trifluoromethyl)-1H-pyrazol-4-yl]-1,2-oxazole-4-carboxylate] | 3 to 9.99 µM (≈ 1.51 to 5.01 µg/mL) | 0.667 to 1.67 h | < 50 nM | < 50 nM | < 50 nM
CCN(CC)CCCOc1cccc(-c2noc(-c3cnn(CCC(C)(C)O)c3C)c2-c2ncccn2)c1Cl [Example 147, 4-[4-(3-{2-chloro-3-[3-(diethylamino)propoxy]phenyl}-4-(pyrimidin-2-yl)-1,2-oxazol-5-yl)-5-methyl-1H-pyrazol-1-yl]-2-methylbutan-2-ol] | > 10 µM | > 1.67 h | 50 to 500 nM | 500 to 5000 nM | 500 to 5000 nM
C[C@@H](O)Cn1ncc(-c2onc(-c3cccc(C(=O)N4CCCC4)c3Cl)c2-c2ccncn2)c1C(F)(F)F [Example 160, (R)-(2-chloro-3-(5-(1-(2-hydroxypropyl)-5-(trifluoromethyl)-1H-pyrazol-4-yl)-4-(pyrimidin-4-yl)isoxazol-3-yl)phenyl)(pyrrolidin-1-yl)methanone] | > 10 µM | 0.167 to 0.666 h | < 50 nM | < 50 nM | < 50 nM
